Assay results: PMC11062922 (Nature Chemical Biology, 2023)

Key:
Experiment in all cases: Kinobeads competition binding profiling, two doses (100 nM and 1 µM);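 further: inhibitor preincubated 45 min at 4 °C in cell lysate, then bead pulldown. Bound protein quantified by label-free mass spectrometry relative to DMSO vehicle control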
[1] = target: T1, endogenous kinases and other proteins enriched by Kinobeads from mixed lysates of K-562, COLO-205, MV-4-11, SK-N-BE(2) and OVCAR-8 (Homo sapiens, UniProt P49760); conditions: CLK2
T1 construct: endogenous in cells

[2] = target: T2, endogenous kinases and other proteins enriched by Kinobeads from mixed lysates of K-562, COLO-205, MV-4-11, SK-N-BE(2) and OVCAR-8 (Homo sapiens, UniProt P51955); conditions: NEK2
T2 construct: endogenous in cells

[3] = target: T3, endogenous kinases and other proteins enriched by Kinobeads from mixed lysates of K-562, COLO-205, MV-4-11, SK-N-BE(2) and OVCAR-8 (Homo sapiens, UniProt P80192); conditions: MLK1
T3 construct: endogenous in cells

[4] = target: T4, endogenous kinases and other proteins enriched by Kinobeads from mixed lysates of K-562, COLO-205, MV-4-11, SK-N-BE(2) and OVCAR-8 (Homo sapiens, UniProt Q13163); conditions: MEK5
T4 construct: endogenous in cells

[5] = target: T5, endogenous kinases and other proteins enriched by Kinobeads from mixed lysates of K-562, COLO-205, MV-4-11, SK-N-BE(2) and OVCAR-8 (Homo sapiens, UniProt Q16584); conditions: MLK3
T5 construct: endogenous in cells

[6] = target: T6, endogenous kinases and other proteins enriched by Kinobeads from mixed lysates of K-562, COLO-205, MV-4-11, SK-N-BE(2) and OVCAR-8 (Homo sapiens, UniProt Q15418); conditions: RSK1(Kin.Dom.1-N-terminal)
T6 construct: endogenous in cells

[7] = target: T7, endogenous kinases and other proteins enriched by Kinobeads from mixed lysates of K-562, COLO-205, MV-4-11, SK-N-BE(2) and OVCAR-8 (Homo sapiens, UniProt P54762); conditions: EPHB1
T7 construct: endogenous in cells

[8] = target: T8, endogenous kinases and other proteins enriched by Kinobeads from mixed lysates of K-562, COLO-205, MV-4-11, SK-N-BE(2) and OVCAR-8 (Homo sapiens, UniProt Q16832); conditions: DDR2
T8 construct: endogenous in cells

[9] = target: T9, endogenous kinases and other proteins enriched by Kinobeads from mixed lysates of K-562, COLO-205, MV-4-11, SK-N-BE(2) and OVCAR-8 (Homo sapiens, UniProt Q9Y463); conditions: DYRK1B
T9 construct: endogenous in cells

[10] = target: T10, endogenous kinases and other proteins enriched by Kinobeads from mixed lysates of K-562, COLO-205, MV-4-11, SK-N-BE(2) and OVCAR-8 (Homo sapiens, UniProt Q13131); conditions: AMPK-alpha1
T10 construct: endogenous in cells

[11] = target: T11, endogenous kinases and other proteins enriched by Kinobeads from mixed lysates of K-562, COLO-205, MV-4-11, SK-N-BE(2) and OVCAR-8 (Homo sapiens, UniProt O14578); conditions: CIT
T11 construct: to maximize the representation of endogenous proteins; endogenous in cells

[12] = target: T12, endogenous kinases and other proteins enriched by Kinobeads from mixed lysates of K-562, COLO-205, MV-4-11, SK-N-BE(2) and OVCAR-8 (Homo sapiens, UniProt Q9UHD2); conditions: TBK1
T12 construct: endogenous in cells

[13] = target: T13, endogenous kinases and other proteins enriched by Kinobeads from mixed lysates of K-562, COLO-205, MV-4-11, SK-N-BE(2) and OVCAR-8 (Homo sapiens, UniProt Q8TD19); conditions: NEK9
T13 construct: endogenous in cells

[14] = target: T14, endogenous kinases and other proteins enriched by Kinobeads from mixed lysates of K-562, COLO-205, MV-4-11, SK-N-BE(2) and OVCAR-8 (Homo sapiens, UniProt P29597); conditions: TYK2(JH2domain-pseudokinase)
T14 construct: endogenous in cells

[15] = target: T15, endogenous kinases and other proteins enriched by Kinobeads from mixed lysates of K-562, COLO-205, MV-4-11, SK-N-BE(2) and OVCAR-8 (Homo sapiens, UniProt O60674); conditions: JAK2(JH1domain-catalytic)
T15 construct: endogenous in cells

[16] = target: T16, endogenous kinases and other proteins enriched by Kinobeads from mixed lysates of K-562, COLO-205, MV-4-11, SK-N-BE(2) and OVCAR-8 (Homo sapiens, UniProt Q08345); conditions: DDR1
T16 construct: endogenous in cells

[17] = target: T17, endogenous kinases and other proteins enriched by Kinobeads from mixed lysates of K-562, COLO-205, MV-4-11, SK-N-BE(2) and OVCAR-8 (Homo sapiens, UniProt Q12866); conditions: MERTK
T17 construct: endogenous in cells

[18] = target: T18, endogenous kinases and other proteins enriched by Kinobeads from mixed lysates of K-562, COLO-205, MV-4-11, SK-N-BE(2) and OVCAR-8 (Homo sapiens, UniProt O75716); conditions: STK16
T18 construct: endogenous in cells

[19] = test system: endogenous kinases and other proteins enriched by Kinobeads from mixed lysates of K-562, COLO-205, MV-4-11, SK-N-BE(2) and OVCAR-8; parameters: species or system human
[20] = target: T19, endogenous kinases and other proteins enriched by Kinobeads from mixed lysates of K-562, COLO-205, MV-4-11, SK-N-BE(2) and OVCAR-8 (Homo sapiens, UniProt P07948); conditions: read-out: Lestaurtinib Drugmatrix value (apparent Kd), Gene Name LYN; target LYN; each column = one Lestaurtinib control run_replicate
T19 construct: endogenous in cells

[21] = target: T20, endogenous kinases and other proteins enriched by Kinobeads from mixed lysates of K-562, COLO-205, MV-4-11, SK-N-BE(2) and OVCAR-8 (Homo sapiens, UniProt Q13882); conditions: read-out: Lestaurtinib Drugmatrix value, Gene Name PTK6; target PTK6; one Lestaurtinib control experiment/replicate (R1-R3)
T20 construct: endogenous in cells

[22] = target: T21, endogenous kinases and other proteins enriched by Kinobeads from mixed lysates of K-562, COLO-205, MV-4-11, SK-N-BE(2) and OVCAR-8 (Homo sapiens, UniProt P42345); conditions: read-out: Lestaurtinib Drugmatrix value (apparent Kd), Gene Name MTOR; target MTOR; each column = one Lestaurtinib control run_replicate
T21 construct: endogenous in cells

T20 sequence (Q13882 whole entry): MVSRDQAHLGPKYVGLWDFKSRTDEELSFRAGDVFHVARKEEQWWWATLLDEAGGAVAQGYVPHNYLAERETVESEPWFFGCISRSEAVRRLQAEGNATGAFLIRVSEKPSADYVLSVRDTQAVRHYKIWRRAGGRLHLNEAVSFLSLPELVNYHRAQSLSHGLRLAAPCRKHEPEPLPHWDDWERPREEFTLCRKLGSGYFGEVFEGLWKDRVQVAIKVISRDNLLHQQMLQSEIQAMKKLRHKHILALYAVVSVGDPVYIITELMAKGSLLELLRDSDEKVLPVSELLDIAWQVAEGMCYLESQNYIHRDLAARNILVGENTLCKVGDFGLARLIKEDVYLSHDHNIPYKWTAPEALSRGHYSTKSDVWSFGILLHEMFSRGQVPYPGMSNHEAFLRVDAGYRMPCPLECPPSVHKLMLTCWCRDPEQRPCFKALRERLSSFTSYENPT
T12 sequence (Q9UHD2 whole entry): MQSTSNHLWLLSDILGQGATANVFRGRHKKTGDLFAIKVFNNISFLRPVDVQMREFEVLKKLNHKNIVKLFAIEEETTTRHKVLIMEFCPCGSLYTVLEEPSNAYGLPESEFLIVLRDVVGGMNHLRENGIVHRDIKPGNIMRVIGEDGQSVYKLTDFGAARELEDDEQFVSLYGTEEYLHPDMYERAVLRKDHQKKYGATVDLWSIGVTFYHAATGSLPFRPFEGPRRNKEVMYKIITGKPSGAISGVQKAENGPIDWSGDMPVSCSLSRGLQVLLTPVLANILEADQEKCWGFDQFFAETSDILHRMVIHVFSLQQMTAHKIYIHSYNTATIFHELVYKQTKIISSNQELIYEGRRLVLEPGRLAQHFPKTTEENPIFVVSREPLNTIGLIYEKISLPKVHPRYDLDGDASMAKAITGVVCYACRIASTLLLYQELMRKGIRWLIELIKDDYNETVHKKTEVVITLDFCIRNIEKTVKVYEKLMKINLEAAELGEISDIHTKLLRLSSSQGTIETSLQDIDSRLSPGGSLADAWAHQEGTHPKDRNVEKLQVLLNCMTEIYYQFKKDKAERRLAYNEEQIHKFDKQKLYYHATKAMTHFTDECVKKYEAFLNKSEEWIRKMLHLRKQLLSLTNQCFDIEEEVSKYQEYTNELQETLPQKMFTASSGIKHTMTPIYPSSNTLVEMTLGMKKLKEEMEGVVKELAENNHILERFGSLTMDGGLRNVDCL
T5 sequence (Q16584 whole entry): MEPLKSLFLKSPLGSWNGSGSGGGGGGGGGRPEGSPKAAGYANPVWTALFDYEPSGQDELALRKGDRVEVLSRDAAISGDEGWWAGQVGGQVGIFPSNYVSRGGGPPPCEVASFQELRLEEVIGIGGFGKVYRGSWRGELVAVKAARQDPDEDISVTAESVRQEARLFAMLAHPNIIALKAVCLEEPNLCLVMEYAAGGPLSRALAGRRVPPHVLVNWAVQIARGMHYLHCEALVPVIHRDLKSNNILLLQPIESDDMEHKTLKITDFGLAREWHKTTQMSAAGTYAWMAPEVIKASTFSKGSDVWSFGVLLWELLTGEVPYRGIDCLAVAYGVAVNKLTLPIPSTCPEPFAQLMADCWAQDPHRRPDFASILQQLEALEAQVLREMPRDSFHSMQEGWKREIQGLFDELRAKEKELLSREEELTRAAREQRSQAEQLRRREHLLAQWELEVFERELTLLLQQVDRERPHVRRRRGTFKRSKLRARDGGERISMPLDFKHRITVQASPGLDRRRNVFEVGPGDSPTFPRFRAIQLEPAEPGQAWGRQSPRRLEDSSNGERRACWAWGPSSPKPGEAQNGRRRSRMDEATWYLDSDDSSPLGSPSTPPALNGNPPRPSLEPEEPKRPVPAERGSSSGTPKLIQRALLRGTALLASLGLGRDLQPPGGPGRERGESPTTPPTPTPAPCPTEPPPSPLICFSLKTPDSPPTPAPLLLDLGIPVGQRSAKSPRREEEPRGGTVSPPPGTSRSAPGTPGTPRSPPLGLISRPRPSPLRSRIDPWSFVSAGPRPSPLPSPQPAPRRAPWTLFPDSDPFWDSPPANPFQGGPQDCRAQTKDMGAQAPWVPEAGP
T1 sequence (P49760 whole entry): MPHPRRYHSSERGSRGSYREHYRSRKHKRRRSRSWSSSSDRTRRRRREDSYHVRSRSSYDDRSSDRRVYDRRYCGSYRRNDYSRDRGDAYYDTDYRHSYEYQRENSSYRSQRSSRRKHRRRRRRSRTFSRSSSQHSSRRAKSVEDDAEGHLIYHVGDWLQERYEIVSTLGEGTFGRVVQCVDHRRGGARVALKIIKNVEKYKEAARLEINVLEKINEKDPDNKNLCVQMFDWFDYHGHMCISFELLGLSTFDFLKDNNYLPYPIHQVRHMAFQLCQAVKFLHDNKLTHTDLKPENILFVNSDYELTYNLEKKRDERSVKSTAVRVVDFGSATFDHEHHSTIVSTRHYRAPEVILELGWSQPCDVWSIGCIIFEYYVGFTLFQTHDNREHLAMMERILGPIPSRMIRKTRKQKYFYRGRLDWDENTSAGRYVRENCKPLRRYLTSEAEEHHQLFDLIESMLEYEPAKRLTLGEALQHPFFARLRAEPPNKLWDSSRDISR
T13 sequence (Q8TD19 whole entry): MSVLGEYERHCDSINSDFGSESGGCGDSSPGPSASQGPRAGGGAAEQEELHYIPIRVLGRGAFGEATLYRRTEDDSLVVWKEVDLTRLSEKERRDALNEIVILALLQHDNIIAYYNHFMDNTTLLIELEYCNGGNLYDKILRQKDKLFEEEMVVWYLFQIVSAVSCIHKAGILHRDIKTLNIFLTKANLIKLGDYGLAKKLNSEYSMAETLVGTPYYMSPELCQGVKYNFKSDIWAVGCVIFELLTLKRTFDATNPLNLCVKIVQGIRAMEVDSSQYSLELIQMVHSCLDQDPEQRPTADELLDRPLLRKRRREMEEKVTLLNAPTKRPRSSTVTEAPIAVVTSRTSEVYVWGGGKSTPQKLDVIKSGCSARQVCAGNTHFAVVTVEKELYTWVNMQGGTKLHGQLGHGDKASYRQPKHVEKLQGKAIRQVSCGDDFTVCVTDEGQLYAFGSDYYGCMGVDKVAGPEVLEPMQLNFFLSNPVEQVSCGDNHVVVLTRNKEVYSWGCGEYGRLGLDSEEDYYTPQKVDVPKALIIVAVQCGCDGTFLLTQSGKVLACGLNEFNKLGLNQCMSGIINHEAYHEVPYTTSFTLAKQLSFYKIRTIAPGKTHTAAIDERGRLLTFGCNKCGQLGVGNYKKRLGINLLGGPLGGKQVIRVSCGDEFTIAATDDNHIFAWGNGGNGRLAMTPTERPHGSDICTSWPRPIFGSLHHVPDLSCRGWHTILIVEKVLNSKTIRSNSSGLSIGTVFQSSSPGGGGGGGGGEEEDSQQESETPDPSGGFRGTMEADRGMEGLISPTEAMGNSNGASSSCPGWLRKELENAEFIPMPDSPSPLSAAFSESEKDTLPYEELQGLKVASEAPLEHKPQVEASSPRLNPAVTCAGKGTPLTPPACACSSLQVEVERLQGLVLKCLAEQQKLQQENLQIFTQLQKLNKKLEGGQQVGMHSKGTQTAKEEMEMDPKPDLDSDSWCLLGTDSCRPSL
T4 sequence (Q13163 whole entry): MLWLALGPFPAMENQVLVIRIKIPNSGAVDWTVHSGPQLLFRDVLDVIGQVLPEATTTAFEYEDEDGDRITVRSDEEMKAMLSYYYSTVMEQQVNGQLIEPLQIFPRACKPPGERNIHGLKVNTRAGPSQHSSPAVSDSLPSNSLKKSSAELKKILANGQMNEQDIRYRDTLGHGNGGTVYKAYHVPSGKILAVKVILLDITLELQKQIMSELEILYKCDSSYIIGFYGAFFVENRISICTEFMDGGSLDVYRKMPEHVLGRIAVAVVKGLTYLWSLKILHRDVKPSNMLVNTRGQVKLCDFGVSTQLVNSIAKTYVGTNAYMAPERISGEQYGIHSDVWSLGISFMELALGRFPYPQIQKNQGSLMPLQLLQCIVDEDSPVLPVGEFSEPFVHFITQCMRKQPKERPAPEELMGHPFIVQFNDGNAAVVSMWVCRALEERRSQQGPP
T2 sequence (P51955 whole entry): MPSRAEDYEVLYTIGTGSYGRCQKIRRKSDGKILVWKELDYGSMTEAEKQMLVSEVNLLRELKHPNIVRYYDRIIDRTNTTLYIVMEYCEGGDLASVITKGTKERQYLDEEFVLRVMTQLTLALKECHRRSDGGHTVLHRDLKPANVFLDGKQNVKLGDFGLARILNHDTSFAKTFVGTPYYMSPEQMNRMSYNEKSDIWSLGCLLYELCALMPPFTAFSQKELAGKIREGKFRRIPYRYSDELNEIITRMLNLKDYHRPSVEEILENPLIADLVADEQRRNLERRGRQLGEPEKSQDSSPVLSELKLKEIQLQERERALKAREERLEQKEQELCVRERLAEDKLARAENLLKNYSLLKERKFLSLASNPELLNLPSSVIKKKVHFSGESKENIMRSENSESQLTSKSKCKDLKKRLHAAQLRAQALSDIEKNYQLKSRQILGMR
T19 sequence (P07948 whole entry): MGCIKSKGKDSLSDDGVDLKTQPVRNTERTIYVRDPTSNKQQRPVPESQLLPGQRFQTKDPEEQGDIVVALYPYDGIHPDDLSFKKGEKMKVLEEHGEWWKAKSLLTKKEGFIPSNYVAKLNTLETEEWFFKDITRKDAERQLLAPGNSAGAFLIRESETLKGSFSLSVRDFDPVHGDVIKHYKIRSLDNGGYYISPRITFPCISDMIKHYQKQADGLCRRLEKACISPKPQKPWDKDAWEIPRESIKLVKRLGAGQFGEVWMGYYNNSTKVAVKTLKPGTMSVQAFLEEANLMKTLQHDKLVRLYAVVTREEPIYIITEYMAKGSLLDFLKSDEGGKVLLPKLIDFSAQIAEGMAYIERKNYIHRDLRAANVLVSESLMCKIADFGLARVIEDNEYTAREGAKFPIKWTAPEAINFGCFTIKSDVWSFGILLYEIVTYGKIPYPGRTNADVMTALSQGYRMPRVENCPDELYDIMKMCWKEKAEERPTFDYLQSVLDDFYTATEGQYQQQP

Question: Which results are given for `COc1cc(Nc2ncc3c(C)nc(-c4cc5ccccc5[nH]4)n3n2)cc(OC)c1OC` [GW869516X]?
Answer: Kinobeads Data [1]: no target; Kinobeads Data [2]: no target; Kinobeads Data [3]: no target; Kinobeads Data [4]: no target; Kinobeads Data [5]: no target; Kinobeads Data [6]: no target; Kinobeads Data [7]: no target; Kinobeads Data [8]: no target; Kinobeads Data [9]: no target; Kinobeads Data [10]: no target; Kinobeads Data [11]: no target; Kinobeads Data [12]: no target; Kinobeads Data [13]: no target; Kinobeads Data [14]: no target; Kinobeads Data [15]: no target; Kinobeads Data [16]: no target; Kinobeads Data [17]: no target; Kinobeads Data [18]: no target

Question: What does the source list for `C[C@]12O[C@H](C[C@]1(O)CO)n1c3ccccc3c3c4c(c5c6ccccc6n2c5c31)CNC4=O` [Lestaurtinib]?
Answer: number of targets in the Kinobead assay [19]: 76; potency estimated from few doses [20]: 808 nM; potency estimated from few doses [21]: 533 nM; potency estimated from few doses [22]: 482 nM
